In ChEMBL document CHEMBL5120867, “Hernandezine Regulates Proliferation and Autophagy-Induced Apoptosis in Melanoma Cells” (J Nat Prod, 2022):

What was measured:
Assay type in all cases: functional
[1] = tested on: B16; experiment: Induction of cell cycle arrest in mouse B16 cells assessed as accumulation at G2/M phase incubated for 24 hrs by PI staining based flow cytometry analysis (reference value: 0.88 %)
[2] = tested on: B16; experiment: Induction of cell cycle arrest in mouse B16 cells assessed as accumulation at S phase incubated for 24 hrs by PI staining based flow cytometry analysis (reference value: 42.53 %)
[3] = tested on: A-375; experiment: Induction of cell cycle arrest in human A-375 cells assessed as accumulation at G2/M phase incubated for 24 hrs by PI staining based flow cytometry analysis (reference value: 8.87 %)
[4] = tested on: B16; experiment: Induction of cell cycle arrest in mouse B16 cells assessed as accumulation at G0/G1 phase incubated for 24 hrs by PI staining based flow cytometry analysis (reference value: 56.59 %)
[5] = tested on: A-375; experiment: Induction of cell cycle arrest in human A-375 cells assessed as accumulation at S phase incubated for 24 hrs by PI staining based flow cytometry analysis (reference value: 34.44 %)
[6] = tested on: A-375; experiment: Induction of cell cycle arrest in human A-375 cells assessed as accumulation at G0/G1 phase incubated for 24 hrs by PI staining based flow cytometry analysis (reference value: 56.69 %)

In the case of `N#C/C(=C\c1ccc(O)c(O)c1)C(=O)NCc1ccccc1`, the Activity [1] is reported as 2.72%, the Activity [2] is reported as 15.11% and the Activity [3] is reported as 6.92%. The Activity [4] was 82.17%, the Activity [5] was 31.61% and the Activity [6] was 61.48%.
